Experimental data taken from PubChem BioAssay (NCI).
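Test compounds were applied to cells in 96-well plates for 48 hours at 5 doses. Definition used: TGI = concentration required for complete inhibition of growth.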

Legend:
Experiment in all cases: inhibition of tumour cell growth, NCI panel, 48 h
MDA-MB-231 breast = tested on: MDA-MB-231 breast
HCT-15 colon = tested on: HCT-15 colon
TK-10 renal = tested on: TK-10 renal
OVCAR-4 ovarian = tested on: OVCAR-4 ovarian
HCC-2998 colon = tested on: HCC-2998 colon
SNB-75 CNS = tested on: SNB-75 CNS
RPMI-8226 leukemia = tested on: RPMI-8226 leukemia
K-562 leukemia = tested on: K-562 leukemia
SF-268 CNS = tested on: SF-268 CNS
SF-539 CNS = tested on: SF-539 CNS
786-0 renal = tested on: 786-0 renal
SNB-19 CNS = tested on: SNB-19 CNS
EKVX NSCLC = tested on: EKVX NSCLC
NCI-H522 lung = tested on: NCI-H522 lung
HOP-62 NSCLC = tested on: HOP-62 NSCLC
MDA-N = tested on: MDA-N
T-47D breast = tested on: T-47D breast
UACC-62 melanoma = tested on: UACC-62 melanoma
SR leukemia = tested on: SR leukemia
CCRF-CEM leukemia = tested on: CCRF-CEM leukemia
SF-295 CNS = tested on: SF-295 CNS
HT29 colon = tested on: HT29 colon
HS 578T breast = tested on: HS 578T breast
MDA-MB-435 = tested on: MDA-MB-435
HCT-116 colon = tested on: HCT-116 colon
MOLT-4 leukemia = tested on: MOLT-4 leukemia
UACC-257 melanoma = tested on: UACC-257 melanoma
CAKI-1 renal = tested on: CAKI-1 renal
NCI/ADR-RES ovarian = tested on: NCI/ADR-RES ovarian
LOX IMVI melanoma = tested on: LOX IMVI melanoma
DU-145 prostate = tested on: DU-145 prostate
NCI-H23 lung = tested on: NCI-H23 lung
MCF7 breast = tested on: MCF7 breast
M14 melanoma = tested on: M14 melanoma
BT-549 breast = tested on: BT-549 breast
SW-620 colon = tested on: SW-620 colon
SK-OV-3 ovarian = tested on: SK-OV-3 ovarian
ACHN renal = tested on: ACHN renal
SK-MEL-28 melanoma = tested on: SK-MEL-28 melanoma
IGROV1 ovarian = tested on: IGROV1 ovarian
COLO 205 colon = tested on: COLO 205 colon
NCI-H460 lung = tested on: NCI-H460 lung
U251 CNS = tested on: U251 CNS
UO-31 renal = tested on: UO-31 renal
OVCAR-5 ovarian = tested on: OVCAR-5 ovarian
A549 NSCLC = tested on: A549 NSCLC
SN12C renal = tested on: SN12C renal
KM12 colon = tested on: KM12 colon
SK-MEL-5 melanoma = tested on: SK-MEL-5 melanoma
MALME-3M melanoma = tested on: MALME-3M melanoma
HOP-92 NSCLC = tested on: HOP-92 NSCLC
OVCAR-8 ovarian = tested on: OVCAR-8 ovarian
OVCAR-3 ovarian = tested on: OVCAR-3 ovarian
A498 renal = tested on: A498 renal
SK-MEL-2 melanoma = tested on: SK-MEL-2 melanoma
PC-3 prostate = tested on: PC-3 prostate
NCI-H226 lung = tested on: NCI-H226 lung
HL-60(TB) leukemia = tested on: HL-60(TB) leukemia

O=C(O)Cn1c[n+](NC(=O)Cc2ccccc2)cn1
TGI (MDA-MB-231 breast): > 10 µM
TGI (HCT-15 colon): > 10 µM
TGI (TK-10 renal): > 10 µM
TGI (OVCAR-4 ovarian): > 10 µM
TGI (HCC-2998 colon): > 10 µM
TGI (SNB-75 CNS): > 10 µM
TGI (RPMI-8226 leukemia): > 10 µM
TGI (K-562 leukemia): > 10 µM
TGI (SF-268 CNS): > 10 µM
TGI (SF-539 CNS): > 10 µM
TGI (786-0 renal): > 10 µM
TGI (SNB-19 CNS): > 10 µM
TGI (EKVX NSCLC): > 10 µM
TGI (NCI-H522 lung): > 10 µM
TGI (HOP-62 NSCLC): > 10 µM
TGI (MDA-N): > 10 µM
TGI (T-47D breast): > 10 µM
TGI (UACC-62 melanoma): > 10 µM
TGI (SR leukemia): > 10 µM
TGI (CCRF-CEM leukemia): > 10 µM
TGI (SF-295 CNS): > 10 µM
TGI (HT29 colon): > 10 µM
TGI (HS 578T breast): > 10 µM
TGI (MDA-MB-435): > 10 µM
TGI (HCT-116 colon): > 10 µM
TGI (MOLT-4 leukemia): > 10 µM
TGI (UACC-257 melanoma): > 10 µM
TGI (CAKI-1 renal): > 10 µM
TGI (NCI/ADR-RES ovarian): > 10 µM
TGI (LOX IMVI melanoma): > 10 µM
TGI (DU-145 prostate): > 10 µM
TGI (NCI-H23 lung): > 10 µM
TGI (MCF7 breast): > 10 µM
TGI (M14 melanoma): > 10 µM
TGI (BT-549 breast): > 10 µM
TGI (SW-620 colon): > 10 µM
TGI (SK-OV-3 ovarian): > 10 µM
TGI (ACHN renal): > 10 µM
TGI (SK-MEL-28 melanoma): > 10 µM
TGI (IGROV1 ovarian): > 10 µM
TGI (COLO 205 colon): > 10 µM
TGI (NCI-H460 lung): > 10 µM
TGI (U251 CNS): > 10 µM
TGI (UO-31 renal): > 10 µM
TGI (OVCAR-5 ovarian): > 10 µM
TGI (A549 NSCLC): > 10 µM
TGI (SN12C renal): > 10 µM
TGI (KM12 colon): > 10 µM
TGI (SK-MEL-5 melanoma): > 10 µM
TGI (MALME-3M melanoma): > 10 µM
TGI (HOP-92 NSCLC): > 10 µM
TGI (OVCAR-8 ovarian): > 10 µM
TGI (OVCAR-3 ovarian): > 10 µM
TGI (A498 renal): > 10 µM

CC1OC2OC3C(OCC(O)C3O)OC(=O)[C@]34CCC(C)(C)CC3C3=CCC5[C@@]6(C)C[C@H](O)[C@H](OC7OC(CO)C(O)C(O)C7OC7OC(COC(=O)CC(C)(O)CC(=O)OC1C(OC1OC(CO)C(O)C(O)C1O)C2O)C(O)C(O)C7O)[C@@](C)(CO)C6CC[C@@]5(C)[C@]3(C)CC4 (stereo partly drawn)
TGI (MDA-MB-231 breast): 16.4 µM
TGI (HCT-15 colon): 15.7 µM
TGI (TK-10 renal): 7.92 µM
TGI (OVCAR-4 ovarian): 16.1 µM
TGI (HCC-2998 colon): 2.65 µM
TGI (SNB-75 CNS): 6.79 µM
TGI (RPMI-8226 leukemia): 10.2 µM
TGI (SF-268 CNS): 10.5 µM
TGI (SF-539 CNS): 15.5 µM
TGI (786-0 renal): 11.9 µM
TGI (SNB-19 CNS): 16 µM
TGI (NCI-H522 lung): 5.89 µM
TGI (HOP-62 NSCLC): 3.13 µM
TGI (MDA-N): 2.65 µM
TGI (T-47D breast): 12.6 µM
TGI (UACC-62 melanoma): 3.38 µM
TGI (SR leukemia): 12.4 µM
TGI (CCRF-CEM leukemia): 14 µM
TGI (SF-295 CNS): 3.72 µM
TGI (HT29 colon): 3.35 µM
TGI (HS 578T breast): 18.6 µM
TGI (MDA-MB-435): 4.71 µM
TGI (HCT-116 colon): 10.3 µM
TGI (MOLT-4 leukemia): 12.7 µM
TGI (SK-MEL-2 melanoma): 3.37 µM
TGI (UACC-257 melanoma): 4.24 µM
TGI (CAKI-1 renal): 17.7 µM
TGI (NCI/ADR-RES ovarian): 11.7 µM
TGI (LOX IMVI melanoma): 12.1 µM
TGI (DU-145 prostate): 8.51 µM
TGI (NCI-H23 lung): 3.23 µM
TGI (M14 melanoma): 8.44 µM
TGI (BT-549 breast): 19.3 µM
TGI (SW-620 colon): 11.2 µM
TGI (SK-OV-3 ovarian): 22.4 µM
TGI (ACHN renal): 8.36 µM
TGI (SK-MEL-28 melanoma): 2.58 µM
TGI (IGROV1 ovarian): 11.8 µM
TGI (COLO 205 colon): 4.52 µM
TGI (NCI-H460 lung): 19.8 µM
TGI (U251 CNS): 9.26 µM
TGI (UO-31 renal): 5.31 µM
TGI (OVCAR-5 ovarian): 5.7 µM
TGI (A549 NSCLC): 0.293 µM
TGI (SN12C renal): 14.8 µM
TGI (KM12 colon): 8.24 µM
TGI (PC-3 prostate): 6.85 µM
TGI (SK-MEL-5 melanoma): 0.272 µM
TGI (NCI-H226 lung): 22.7 µM
TGI (MALME-3M melanoma): 6.96 µM
TGI (HOP-92 NSCLC): 4.31 µM
TGI (OVCAR-8 ovarian): 13.1 µM
TGI (OVCAR-3 ovarian): 15.2 µM
TGI (HL-60(TB) leukemia): 3.13 µM
